Target: T1, TDO2 (Homo sapiens, UniProt P48775)
T1 construct: decreased levels of NFK in SW48 cells (high TDO expressing cells)
Assay: TDO2 cell assay (NFK GreenScreen, SW48 cells)
Assay type: cell-based
Settings: SW48 cells (high TDO expressing), 200 uM tryptophan, 24 hours; Table 3; read-out: TDO2 Cell Fluor EC50

T1 sequence (P48775 whole entry): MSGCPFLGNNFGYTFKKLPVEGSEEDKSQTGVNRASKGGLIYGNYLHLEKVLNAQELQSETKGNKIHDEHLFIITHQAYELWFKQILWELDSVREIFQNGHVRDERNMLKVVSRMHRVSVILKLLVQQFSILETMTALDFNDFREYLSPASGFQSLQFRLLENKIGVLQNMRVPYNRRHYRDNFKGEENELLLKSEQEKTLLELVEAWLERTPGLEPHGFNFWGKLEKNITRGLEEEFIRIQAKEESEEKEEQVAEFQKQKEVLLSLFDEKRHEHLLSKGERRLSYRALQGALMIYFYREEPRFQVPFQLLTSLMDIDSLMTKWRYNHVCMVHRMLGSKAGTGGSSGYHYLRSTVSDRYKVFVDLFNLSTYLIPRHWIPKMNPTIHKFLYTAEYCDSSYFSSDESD

Row | Structure (SMILES) | EC50
1 | OC1COCCC1C1c2c(Cl)cccc2-c2cncn21 (single isomer, unassigned) [Example 69-1b] | > 25 µM
2 | OC1COCCC1C1c2c(Cl)cccc2-c2cncn21 (single isomer, unassigned) [Example 69-1c] | > 25 µM
3 | OC1COCCC1C1c2c(Cl)cccc2-c2cncn21 (single isomer, unassigned) [Example 69-1d] | 4.6 µM
4 | OC1CCOCC1C1c2c(Cl)cccc2-c2cncn21 (single isomer, unassigned) [Example 69a] | > 25 µM
5 | OC1CCOCC1C1c2c(Cl)cccc2-c2cncn21 (single isomer, unassigned) [Example 69b] | > 25 µM
6 | OC1CCOCC1C1c2c(Cl)cccc2-c2cncn21 (single isomer, unassigned) [Example 69c] | 11 µM
7 | OC1CCOCC1C1c2c(Cl)cccc2-c2cncn21 (single isomer, unassigned) [Example 69d] | > 25 µM
8 | O=S(=O)(C1CC1)N1CC[C@@H](O)[C@H]([C@H]2c3ccccc3-c3cncn32)C1 (single isomer, unassigned) [Example 70a] | > 25 µM
9 | O=S(=O)(C1CC1)N1CC[C@@H](O)[C@H]([C@H]2c3ccccc3-c3cncn32)C1 (single isomer, unassigned) [Example 70b] | 1.1 µM
10 | O=S(=O)(C1CC1)N1CC[C@@H](O)[C@H]([C@@H]2c3ccccc3-c3cncn32)C1 (single isomer, unassigned) [Example 70c] | > 25 µM
11 | O=S(=O)(C1CC1)N1CC[C@@H](O)[C@H]([C@@H]2c3ccccc3-c3cncn32)C1 (single isomer, unassigned) [Example 70d] | > 25 µM
12 | OC1c2cnccc2CC1C1c2ccccc2-c2cncn21 (single isomer, unassigned) [Example 71a] | 17 µM
13 | OC1c2cnccc2CC1C1c2ccccc2-c2cncn21 (single isomer, unassigned) [Example 71aa] | > 25 µM
14 | OC1c2cnccc2CC1C1c2ccccc2-c2cncn21 (single isomer, unassigned) [Example 71b] | 0.63 µM
15 | OC1c2cnccc2CC1C1c2ccccc2-c2cncn21 (single isomer, unassigned) [Example 71bb] | 0.49 µM
16 | OC1c2cnccc2CC1C1c2ccccc2-c2cncn21 (single isomer, unassigned) [Example 71c] | > 25 µM
17 | OC1c2cnccc2CC1C1c2ccccc2-c2cncn21 (single isomer, unassigned) [Example 71d] | 1.6 µM
18 | OC1c2cnccc2CC1C1c2ccccc2-c2cncn21 (single isomer, unassigned) [Example 71e] | 11 µM
19 | OC1c2cnccc2CC1C1c2ccccc2-c2cncn21 (single isomer, unassigned) [Example 71f] | > 25 µM
20 | OC1CC2(CC2)C1C1c2ccccc2-c2cncn21 (single isomer, unassigned) [Example 72a] | 6.6 µM
21 | OC1CC2(CC2)C1C1c2ccccc2-c2cncn21 (single isomer, unassigned) [Example 72b] | 0.65 µM
22 | OC1CC2(CC2)C1C1c2ccccc2-c2cncn21 (single isomer, unassigned) [Example 72c] | 10 µM
23 | OC1CC2(CC2)C1C1c2ccccc2-c2cncn21 (single isomer, unassigned) [Example 72d] | 9 µM
24 | OC1CC2(CC2)C1C1c2ccccc2-c2cncn21 (single isomer, unassigned) [Example 72e] | 0.052 µM
25 | OC1CC2(CC2)C1C1c2ccccc2-c2cncn21 (single isomer, unassigned) [Example 72f] | 11 µM

Row | Structure (SMILES) | EC50
26 | OC1CC2(CC2)C1C1c2ccccc2-c2cncn21 (single isomer, unassigned) [Example 72g] | 11 µM
27 | OC1CC2(CC2)C1C1c2ccccc2-c2cncn21 (single isomer, unassigned) [Example 72h] | 18 µM
28 | OC1CCOCC1C1c2c(F)cccc2-c2cncn21 (single isomer, unassigned) [Example 73a] | 6.4 µM
29 | OC1CCOCC1C1c2c(F)cccc2-c2cncn21 (single isomer, unassigned) [Example 73b] | 2.2 µM
30 | OC1CCOCC1C1c2c(F)cccc2-c2cncn21 (single isomer, unassigned) [Example 73c] | 0.34 µM
31 | OC1CCOCC1C1c2c(F)cccc2-c2cncn21 (single isomer, unassigned) [Example 73d] | > 25 µM
32 | OC1COCCC1C1c2cc(F)ccc2-c2cncn21 (single isomer, unassigned) [Example 75-1a] | 5.7 µM
33 | OC1COCCC1C1c2cc(F)ccc2-c2cncn21 (single isomer, unassigned) [Example 75-1b] | > 25 µM
34 | OC1COCCC1C1c2cc(F)ccc2-c2cncn21 (single isomer, unassigned) [Example 75-1c] | 0.11 µM
35 | OC1COCCC1C1c2cc(F)ccc2-c2cncn21 (single isomer, unassigned) [Example 75-1d] | > 25 µM
36 | OC1CCOCC1C1c2cc(F)ccc2-c2cncn21 (single isomer, unassigned) [Example 75a] | > 25 µM
37 | OC1CCOCC1C1c2cc(F)ccc2-c2cncn21 (single isomer, unassigned) [Example 75b] | 1.2 µM
38 | OC1CCOCC1C1c2cc(F)ccc2-c2cncn21 (single isomer, unassigned) [Example 75c] | 19 µM
39 | OC1CCOCC1C1c2cc(F)ccc2-c2cncn21 (single isomer, unassigned) [Example 75d] | 0.52 µM
40 | CCS(=O)(=O)N1CCC2(CCC(C3c4ccccc4-c4cncn43)C2O)CC1 (single isomer, unassigned) [Example 76a] | 9.5 µM
41 | CCS(=O)(=O)N1CCC2(CCC(C3c4ccccc4-c4cncn43)C2O)CC1 (single isomer, unassigned) [Example 76b] | 15 µM
42 | CCS(=O)(=O)N1CCC2(CCC(C3c4ccccc4-c4cncn43)C2O)CC1 (single isomer, unassigned) [Example 76c] | 0.071 µM
43 | CCS(=O)(=O)N1CCC2(CCC(C3c4ccccc4-c4cncn43)C2O)CC1 (single isomer, unassigned) [Example 76d] | 15 µM
44 | CCS(=O)(=O)N1CCC2(CCC(C3c4ccccc4-c4cncn43)C2O)CC1 (single isomer, unassigned) [Example 76e] | 0.25 µM
45 | O=S(=O)(C1CC1)N1CC[C@@H]([C@H]2c3ccccc3-c3cncn32)[C@H](O)C1 (single isomer, unassigned) [Example 77a] | > 25 µM
46 | CS(=O)(=O)N1CCC(C2c3ccccc3-c3cncn32)C(O)C1 (single isomer, unassigned) [Example 79a] | 8.1 µM
47 | CS(=O)(=O)N1CCC(C2c3ccccc3-c3cncn32)C(O)C1 (single isomer, unassigned) [Example 79b] | 5.2 µM
48 | CC(C)S(=O)(=O)N1CC[C@@H]([C@H]2c3ccccc3-c3cncn32)[C@H](O)C1 (single isomer, unassigned) [Example 80a] | > 25 µM
49 | CC(C)S(=O)(=O)N1CC[C@@H]([C@H]2c3ccccc3-c3cncn32)[C@H](O)C1 (single isomer, unassigned) [Example 80b] | 0.14 µM
50 | O=S(=O)(C1CC1)N1CC[C@@H]([C@@H]2c3ccccc3-c3cncn32)[C@H](O)C1 (single isomer, unassigned) [Example 81a] | 5.3 µM
